Reference: EP4810493A1, “HETEROCYCLIC CARBONYL DERIVATIVE MODULATOR, PREPARATION METHOD THEREFOR, AND USE THEREOF” (Shanghai Hansoh Biomedical Co., Ltd., priority 2023, dated 2025)
pEC50: −log10 of the molar value. Where two headings read alike, the source gives them in different places.

Assays:
M4 receptor = biological target: T1, M4 receptor (Homo sapiens, UniProt P08173); test: Calcium flux (FLIPR) potentiation assay in cells stably expressing M4 receptor; assay type: cell-based
T1 construct: expressed in transfected cells
T1 sequence (P08173 1-479): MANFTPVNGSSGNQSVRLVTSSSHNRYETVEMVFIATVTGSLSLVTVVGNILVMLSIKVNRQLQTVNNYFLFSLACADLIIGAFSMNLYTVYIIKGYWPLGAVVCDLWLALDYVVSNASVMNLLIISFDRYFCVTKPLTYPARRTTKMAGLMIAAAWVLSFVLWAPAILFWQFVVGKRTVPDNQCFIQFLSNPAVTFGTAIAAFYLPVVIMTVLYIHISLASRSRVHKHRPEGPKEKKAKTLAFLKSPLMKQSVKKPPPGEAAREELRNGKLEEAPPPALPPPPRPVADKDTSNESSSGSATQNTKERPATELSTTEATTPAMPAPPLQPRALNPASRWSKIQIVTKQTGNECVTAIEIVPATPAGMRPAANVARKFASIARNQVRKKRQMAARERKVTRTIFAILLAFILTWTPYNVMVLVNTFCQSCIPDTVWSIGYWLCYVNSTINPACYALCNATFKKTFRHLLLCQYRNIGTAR
Text: Test example 1. Determination of the effect of the compounds of the present invention on calcium current in cells stably expressing M1-M5 receptors
To detect the potentiating effect of compounds on calcium flux activity in CHO-K1/human M1/3/5 and CHO-K1/Gα15 M2/4 cells.
384-well assay plate, 384-well plate, FLIPR Tip, FLIPR Penta plate reader, Dispendix non-contact nanoliter dispensing system (liquid handling workstation), liquid handler.
Ham's F-12 Nutrient Mix, foetal bovine serum, P/S (Gibco: 15140122), HBSS (Gibco: 14025076), HEPES (Gibco: 15630080), FLIPR calcium 6 assay kit (Molecular Devices: R8190), Probenecid (PBA) (Invitrogen: P36400), Acetylcholine chloride (Sigma: A6625-25G) Complete culture medium: DMEM + 10% FBS + 1X P/S; Cell seeding medium: DMEM + 10% FBS + 1X PS; Assay buffer 1: 1X HBSS + 20 mM HEPES +2.5 mM Probenecid; Assay buffer 2: 1X HBSS + 20 mM HEPES; Cell line: CHO-K1/M1; CHO-K1/M2/Gα15; CHO-K1/M3; CHO-K1/M4/Gα15; CHO-K1/M5.
FLIPR calcium 6 assay kit: Component A was dissolved in Assay buffer 1, and the mixture was shaken for 1-2 min, sub-packaged and stored at -20°C.
• 1) CHO-K1/M1; CHO-K1/M2/Gα15; CHO-K1/M3; CHO-K1/M4/Gα15; and CHO-K1/M5 cell lines were cultured separately in complete culture medium at 37°C, 5% CO2 to 70%-90% confluency. • 2) The cells were digested and resuspended in cell seeding medium, 5,000 cells/well/20 µL were seeded into a 384-well cell culture plate, and the cells were cultured at 37°C, 5% CO2 for 24 hours. • 3) The cell culture plate was taken out of the CO2 incubator and equilibrated at room temperature for 10 minutes. • 4) Component A solution was removed and allowed to equilibrate to room temperature. 20 µL of Component A solution was added to each well of the cell culture plate, and incubated at room temperature in the dark for 1 hour. • 5) Acetylcholine chloride (ACh), a muscarinic receptor agonist, was prepared in Assay buffer 2 at EC20/EC100 concentrations; subsequently, 30 µL of the prepared muscarinic receptor agonist was added to a 384-well agonist plate (PE: 6008590) using a Multidrop Combi; the working solutions of the positive control compound and the test compound were serially diluted at a 3.16-fold gradient and dispensed (450 nL) into a 384-well compound plate (PE: 6008590) using the Dispendix liquid handling workstation; 30 µL of Assay buffer 2 was added to the 384-well compound plate (PE: 6008590) using the Multidrop Combi; the positive control compound and the test compound were diluted to 6X, mixed by shaking, and placed at room temperature until use. • 6) 10 µL of the diluted 6X compound was added to the assay wells of the corresponding 384-well cell plate using the FLIPR Penta, followed by a 2-minute incubation. • 7) 10 µL of the prepared muscarinic receptor agonist was added to the assay wells of the corresponding 384-well cell plate using the FLIPR Penta, with simultaneous data acquisition.
FLIPR Penta was used to read and collect the fluorescence signal value (RFU). The maximum RFU value was used to calculate the percent activation data based on the readings of the Low control (DMSO control group) and High control (ACh EC100) experimental groups {% activation rate = (RFUsample - RFUlow control) / (RFUhigh control - RFUlow control)×100}. The test compound was diluted 3.16X in the reaction system to generate 11 concentration points ranging from 30 µM to […].

[1] = Pharmacokinetic determination in SD rats; conditions: rat, in vivo, po, male SD rats, p.o. 5 mg/kg; for MRT inf: read-out: MRT 0-∞
Procedure: To investigate the pharmacokinetic behaviours of the example compounds in both plasma and brain of SD rats (test animals) following oral administration at a dose of 5 mg/kg.
2.1 Test drugs: The example compounds of the present invention, made in house.
2.2 Test animals: SD Rat, male.
24 SD Rats, male; p.o. respectively at a dose of 5 mg/kg and an administration volume of 10 mL/kg after the rats were fasted overnight.
Formulation of a drug for oral administration: 0.5% CMC-Na (1% Tween 80).
0.50 g of sodium carboxymethyl cellulose (CMC-Na, viscosity: 800-1200 Cps) was weighed and dissolved in 99 mL of purified water, and 1 ml of Tween 80 was added. The components were mixed thoroughly under stirring to form a clear solution.
The example compound was weighed into a 100 mL glass vial, 80 mL of the solution was added, and the mixture was subjected to ultrasound treatment for 10 minutes to obtain a homogeneous suspension with a concentration of 0.5 mg/mL.
After the test animals were euthanised by CO2, blood samples were collected from the heart and brain tissues were harvested at 0.25 h, 0.5 h, 1 h, 2 h, 4 h, 6 h, 8 h, and 24 h post-dose. Blood was placed in EDTA-2K tubes, and centrifuged at 6000 rpm for 6 min at 4°C to separate the plasma. Brain tissues were rinsed with pre-cold PBS, blotted dry, and weighed. Both plasma and brain samples were stored at -80°C. The animals were fed 4 h after administration.
• 3) 40 uL of plasma sample was precipitated with 160 uL of acetonitrile, mixed, and centrifuged at 3500 × g for 5-20 min. Brain tissues were diluted, homogenised and centrifuged. • 4) 100 uL of the treated supernatant solution was taken for LC/MS/MS analysis to determine the concentration of the test compounds.
• Liquid phase conditions: Shimadzu LC-20AD pump • Mass spectrometry conditions: AB Sciex API 4000 mass spectrometer • Chromatographic column: Phenomenex Gemiu 5 um C18 50 × 4.6 mm • Mobile phase: solution A: 0.1% formic acid in water, solution B: acetonitrile • Flow rate: 0.8 mL/min • Elution time: 0-4.0 min, with eluents as follows:
The main pharmacokinetic parameters were calculated using WinNonlin 8.1.

[2] = CHO-K1/M4/Gα15 cells, potentiation of acetylcholine (EC20) calcium flux, read-out: M4 FLIPR EC50

pEC50 (M4 receptor; [2]) | AUC(0-inf) [1] [ng·h/mL] | Cmax [1] [ng/mL] | Tmax [1] [h] | MRT inf [1] [h] | SMILES | pEC50 (M4 receptor)
7.41 | 8540 | 3210 | 0.5 | 1.7 | Cc1c2c(c3nccn3c1C)CN(C(=O)OC1CN(c3ccnc(C(F)F)c3)C1)C2 [Example 141] | 
7.39 | 3260 | 914 | 1 | 2.4 | COc1cc(N2CC(CC(=O)N3Cc4c(C)c(C)n5ncnc5c4C3)C2)c(Cl)cn1 [Example 147] | 
7.43 | 7050 | 1710 | 1 | 2.8 | COc1cc(N2CC(OC(=O)N3Cc4c(C)c(C)n5ncnc5c4C3)C2)ccn1 [Example 182] | 
7.69 | 3170 | 967 | 1 | 2.6 | Cc1c2c(c3ncnn3c1C)CN(C(=O)CC1CN(c3ccnc(OC4CC4)c3)C1)C2 [Example 188] | 
7.31 | 6710 | 1090 | 1.5 | 4.6 | COc1cc(N2CC(CC(=O)N3Cc4c(C)c(C)n5ncnc5c4C3)C2)ccn1 [Example 236] | 

Second part, the compound before the results:

SMILES | pEC50 (M4 receptor; [2]) | AUC(0-inf) [1] [ng·h/mL] | Cmax [1] [ng/mL] | Tmax [1] [h] | MRT inf [1] [h] | pEC50 (M4 receptor)
Cc1c2c(c3ccnn3c1C)CN(C(=O)CC1CN(c3ccnc(C(F)(F)F)c3)C1)C2 [Example 76, 1-(4,5-Dimethyl-2,3-dihydro-1H-pyrrolo[4,3-c]pyrazolo[1,5-a]pyridin-2-yl)-2-{1-[2-(trifluoromethyl)pyridin-4-yl]azetidin-3-yl}ethan-1-one] | 7.39 | 6150 | 1090 | 2 | 3.9 | 
Cc1c2c(c3ncnn3c1C)CN(C(=O)CC1CN(c3ccc4nc(C(F)F)cn4n3)C1)C2 [Example 189] | 7.88 | 3220 | 1040 | 1 | 2.6 | 
Cc1c2c(c3ncnn3c1C)CN(C(=O)OC1CN(c3ccc4nc(C(F)F)cn4n3)C1)C2 [Example 191] | 7.51 | 16100 | 2840 | 2 | 3.9 | 
Cc1c2c(c3ncnn3c1C)CN(C(=O)CC1CN(c3ccc4c(cnn4C)c3)C1)C2 [Example 269] | 7.06 | 3640 | 1330 | 0.83 | 2 | 
Cc1c2c(c3ncnn3c1C)CN(C(=O)CC1CN(c3cnc4c(c3)COC4)C1)C2 [Example 270] | 7.63 | 12000 | 3500 | 0.83 | 2.5 | 
CCOc1ccc(N2CC(CC(=O)N3Cc4c(C)c(C)n5ncnc5c4C3)C2)cn1 [Example 304, 1-(5,6-Dimethyl-7,9-dihydro-8H-pyrrolo[3,4-c][1,2,4]triazolo[1,5-a]pyridin-8-yl)-2-(1-(6-ethoxypyridin-3-yl)azetidin-3-yl)ethan-1-one] | 7.57 | 4080 | 2380 | 0.5 | 1.32 | 
CCn1ncc2cc(N3CC(CC(=O)N4Cc5c(C)c(C)n6ncnc6c5C4)C3)ccc21 [Example 307] |  | 5300 | 2110 | 0.75 | 2.02 | 7.77
Cc1c2c(n3ncnc3c1Cl)CN(C(=O)CC1CN(c3ncc(C(F)(F)F)cn3)C1)C2 [Example 317, 1-(4-Chloro-5-methyl-6,8-dihydro-7H-pyrrolo[3,4-e][1,24]triazolo[1,5-a]pyridin-7-yl)-2-(1-(5-(trifluoromethyl)pyrimidin-2-yl)azetidin-3-yl)ethan-1-one] | 7.77 | 26700 | 2140 | 4 | 11.2 | 
Cc1cc2ncnn2c2c1CN(C(=O)CC1CN(c3ncc(C(F)(F)F)cn3)C1)C2 [Example 331] |  | 10700 | 944 | 2 | 6.8 | 7.00
